Measured values published in PMC8767159, “Multiparameter Optimization of Trypanocidal Cruzain Inhibitors With In Vivo Activity and Favorable Pharmacokinetics” (Frontiers in Pharmacology, 2022).

Tests used:
[1] = Fraction unbound by equilibrium dialysis; assay type: in vitro ADME; details: pH 7.4
Protocol: The fraction unbound (fu) ([Masimirembwa et al., 2003]) of the test compounds was determined after incubation with different media, namely, plasma, microsomes, and buffer with 10% FCS. Equilibrium dialysis was performed in a 96-well plate (HT-Dialysis, Gales Ferry, CT) in which each well was divided by a semipermeable membrane (12–14 kDa cutoff). The test compounds diluted in either plasma, microsome suspension, or buffer were added to one side of the membrane. Potassium phosphate buffer (50 mM, pH 7.4) was added to the other side of the membrane. A standard curve was used to calculate the compound concentration (fu) on each side of the membrane. Stock solutions of each compound were prepared in 100% DMSO to obtain a final concentration of 1 mM. The following compound concentrations were used: 1, 2, 20, 200, 2,000 and 5,000 nM. To 500 μl of medium, 0.5 μl of the compound stock solution was added, and this was applied to one side of the well. Each compound was evaluated in triplicate. Next, the plate was assembled, sealed, and incubated at 37°C under rotation (150 rpm) for 4 h. After the incubation period, the plates were subjected to LC-MS/MS.

[2] = Parallel artificial membrane permeability assay (PAMPA); assay type: in vitro ADME; parameters: PAMPA: unit: 1e-6 cm/s; details: for PAMPA: unit not given
Protocol: The permeability of the compounds was assessed using the PAMPA method ([Yu et al., 2015]). The test compounds were dissolved in DMSO to a concentration of 5 mM. Next, the compounds were diluted in a stock plate in saline phosphate buffer (PBS), pH 6.5, containing 1% DMSO to a concentration of 1 µM. Then, 300 µl of each test compound was added to the donor plate. Afterward, 200 µl of PBS buffer, pH 7.4, was added to the acceptor plate. The donor plate was attached to the acceptor plate. The assembled acceptor-donor plate was then incubated at 37°C for 5 h under gentle agitation. To analyze the concentration of the compounds by mass spectrometry, two analysis plates (one for the donor and another for the acceptor plate) containing 300 μl of MEOH:ACN 50:50 were prepared. To the donor analysis plate, 90 µl of PBS, pH 6.5, and 10 µl of the content of the donor plate were added. For the acceptor analysis plate, 100 µl of the content of the acceptor plate was added. To monitor any potential decomposition/intrinsic instability of the test compounds in solution, samples from the stock plate were subjected to LC-MS/MS. The compounds that presented Pe ≥ 1.5 × 10^−6 cm/s were classified as permeable, while compounds that presented Pe < 1.5 × 10^−6 cm/s were considered poorly permeable or nonpermeable.

cruzain = biological target: T1, cruzain (Trypanosoma cruzi, UniProt P25779); test: Cruzain enzyme inhibition assay (cleavage of fluorogenic substrate Z-FR-AMC); assay type: biochemical; details: for IC50: 1.5 nM cruzain, 5.0 µM Z-FR-AMC, mean ± SD of 2–3 assays, read-out: IC50 (µM) against cruzain; for inhibition at 100 µM: compound 100 µM, mean of three measures
T1 construct: made in house; host or cells: Escherichia coli (strain M15)
T1 sequence (P25779 123-337 limits assumed): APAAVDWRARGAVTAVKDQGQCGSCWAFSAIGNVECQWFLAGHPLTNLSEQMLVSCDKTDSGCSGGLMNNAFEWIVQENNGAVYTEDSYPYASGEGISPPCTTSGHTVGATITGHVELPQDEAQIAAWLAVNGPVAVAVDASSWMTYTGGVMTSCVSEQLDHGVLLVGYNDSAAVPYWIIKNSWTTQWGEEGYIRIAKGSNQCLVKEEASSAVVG
Protocol: Pro-cruzain truncated at the C-terminus was expressed and purified using a previously described protocol ([Ferreira et al., 2019]). Escherichia coli (strain M15) cultures were grown overnight at 37°C and 200 rpm in Luria Bertani (LB) medium supplemented with ampicillin (100 μg/ml) and kanamycin (50 μg/ml). Next, the cultures were diluted 10-fold in fresh LB medium supplemented with 0.5 M NaCl, 0.2% glucose, 1 mM betaine, 0.5 M sorbitol, 100 μg/ml ampicillin, and 50 μg/ml kanamycin and incubated at 37°C and 200 rpm. At an optical density (OD600) of 0.9, the cultures were incubated at 47°C for 20 min to promote the expression of chaperones. Then, the expression of cruzain was induced by adding isopropyl β-D-thiogalactopyranoside (IPTG) to a final concentration of 0.2 mM, which was followed by overnight incubation of the cultures at 20°C and 200 rpm. Next, the cultures were centrifuged (5,000 rpm, 30 min, 4°C), and the cells were suspended in 50 ml of lysis buffer (300 mM NaCl, 50 mM Tris-HCl, and 1.6 mg/ml lysozyme, pH 8.0) per liter of culture and lysed by sonication (12 cycles of 30 s). This cell lysate was centrifuged (9,000 rpm, 30 min, 4°C), and the supernatant was collected. Cruzain was precipitated by incubation with 35% ammonium sulfate (2 h), and this suspension was centrifuged at 9,000 rpm for 30 min at 4°C. The precipitated cruzain was resuspended in lysis buffer, and the sample was dialyzed to eliminate ammonium sulfate. The soluble fraction of the dialysate was loaded on a Ni−NTA column (Qiagen, Hilden, Germany), and the contaminants were washed using washing buffer (300 mM NaCl, 50 mM Tris-HCl, and 10 mM imidazole, pH 8.0). Cruzain was eluted by applying an increasing imidazole gradient: 25, 50, 75, 100, and 250 mM. The fractions containing cruzain were pooled together and dialyzed against 1.5 L of 0.1 M acetate buffer, pH 5.5, and then concentrated to 0.5 mg/ml. Pro-cruzain was activated by incubation with activation buffer (100 mM sodium acetate, pH 5.5, 10 mM EDTA, 5 mM DTT, and 1 M NaCl) at 37°C. […] After activation, the enzyme was diluted 20-fold in binding buffer (20 mM sodium phosphate and 150 mM NaCl, pH 7.2) and added to thiopropyl Sepharose 6B resin (GE Healthcare Life Sciences, Pittsburgh, PA). After overnight incubation at 4°C, the resin was loaded on a column, and cruzain was eluted with binding buffer supplemented with 20 mM DTT. Fractions containing cruzain were pooled together and stored in 0.1 M sodium acetate, pH 5.5, at −80°C.
Cruzain activity was followed by monitoring the cleavage of the fluorogenic substrate Z-Phe-Arg-aminomethyl coumarin (Z-FR-AMC), as previously described ([Ferreira et al., 2019]), using 96-well flat-bottom black plates and wavelengths of 355 nm for excitation and 460 nm for emission. All cruzain assays were performed in 0.1 M sodium acetate buffer with 5 mM dithiothreitol (DTT) and 0.01% Triton X-100, pH 5.5. […] The cleavage of the substrate was monitored for 5 min, and the activity was calculated based on the initial reaction rates compared with the rate of a DMSO control at 30°C. The IC50 values were independently calculated by considering the rate measurements for at least six inhibitor concentrations, each evaluated in triplicate. To determine the mechanism of cruzain inhibition, eight concentrations of the substrate Z-FR-AMC and four concentrations of the inhibitor were employed, each in triplicate. Kinetic parameters were determined using the SigmaPlot (Systat Software Inc., Erkrath, Germany) enzyme kinetics module. Compounds were tested in two or three independent experiments. All enzyme assays were performed using varying Triton X-100 concentrations (0, 0.01, and 0.1%) ([Ferreira et al., 2009]). Compound concentrations were 100 μM in the single-dose percentage inhibition assays.

[3] = Table 5, fraction unbound used to correct CLint
[4] = Table 6, fraction unbound used to correct plasma clearance
[5] = PAMPA, Table 3, donor pH 6.5, acceptor pH 7.4, 5 h
[6] = Table S6, fraction unbound used to correct plasma clearance

Row | SMILES | fraction unbound at 4 h, 1 µM [1, 3] | fraction unbound at 4 h, 1 µM [1, 4] | Papp at 5 h, 1 µM [2, 5] [×10⁻⁶ cm/s] | Papp at 5 h, 1 µM ([2]; PAMPA, Table 5) [×10⁻⁶ cm/s] | PAMPA ([2]; Table S5) | fraction unbound at 4 h, 1 µM ([1]; Table S5, fraction unbound) | IC50 (cruzain) [µM] | inhibition at 100 µM (cruzain) [%] | further results
1 | O=C(Cn1ccnc1[N+](=O)[O-])NCc1ccccc1 [BZ, benznidazole, reference compound] | 1 | 0.99 | 3.17 | 3.2 | 3.17 |  |  |  | 
2 | O=C(COc1ccccc1)NCCc1nc2ccccc2[nH]1 [Compound 1] |  |  | 4.21 |  | 4.21 | 1 | 10.9 ± 1 | 90 | fraction unbound at 4 h, 1 µM [1, 6]: 0.23; Mechanism of cruzain inhibition (Lineweaver-Burk plots) (cruzain; eight substrate and four inhibitor concentrations): competitive
3 | CC(=O)Nc1ccc(OCC(=O)NCCc2nc3ccccc3[nH]2)cc1 [Compound 2] |  |  | 0.21 |  | 0.21 | 1 | 4.5 ± 0.5 | 79 | fraction unbound at 4 h, 1 µM [1, 6]: 0.49
4 | CC(=O)Nc1cccc(OCC(=O)NCCc2nc3ccccc3[nH]2)c1 [Compound 3] |  |  | 0.17 |  | 0.17 | 1 | 28.1 ± 3.1 | 70 | fraction unbound at 4 h, 1 µM [1, 6]: 0.16
5 | O=C(COc1ccc(N2C(=O)CCC2=O)cc1)NCCc1nc2ccccc2[nH]1 [Compound 4] |  |  |  |  |  | 0.99 |  | 20 | Papp at 5 h, 1 µM ([2]; Table S5, unit inferred): 0.17 ×10⁻⁶ cm/s
6 | O=C(COc1ccc(NC(=O)CCCO)cc1)NCCc1nc2ccccc2[nH]1 [Compound 5] |  |  |  |  |  | 0.96 |  | 87 | Papp at 5 h, 1 µM ([2]; Table S5, unit inferred): 0.02 ×10⁻⁶ cm/s
7 | O=C(COc1cccc(N2C(=O)CCC2=O)c1)NCCc1nc2ccccc2[nH]1 [Compound 6] |  |  |  |  |  | 1 |  | 38 | Papp at 5 h, 1 µM ([2]; Table S5, unit inferred): 0.2 ×10⁻⁶ cm/s
8 | O=C(COc1cccc(NC(=O)CCCO)c1)NCCc1nc2ccccc2[nH]1 [Compound 7] |  |  |  |  |  | 1 |  | 75 | Papp at 5 h, 1 µM ([2]; Table S5, unit inferred): 0.03 ×10⁻⁶ cm/s
9 | O=C(COc1cccc([N+](=O)[O-])c1)NCCc1nc2ccccc2[nH]1 [Compound 8] |  |  | 2.17 |  | 2.17 | 1 | 13.5 ± 2.6 | 83 | fraction unbound at 4 h, 1 µM [1, 6]: 0.14
10 | Nc1cccc(OCC(=O)NCCc2nc3ccccc3[nH]2)c1 [Compound 9] |  |  | 0.38 |  | 0.38 | 0.99 | 18.2 ± 1.8 | 90 | 
11 | O=C(COc1ccc2cc(O)ccc2c1)NCCc1nc2ccccc2[nH]1 [Compound 10] |  |  | 0.21 |  | 0.21 | 0.82 | 3.4 ± 0.9 | 90 | fraction unbound at 4 h, 1 µM [1, 6]: 0.34
12 | O=C(COc1ccc2ccc(O)cc2c1)NCCc1nc2ccccc2[nH]1 [Compound 11] |  |  | 0.17 |  |  | 0.67 | 2.7 ± 0.7 | 96 | fraction unbound at 4 h, 1 µM [1, 6]: 0.03; Papp at 5 h, 1 µM ([2]; Table S5, unit inferred): 0.13 ×10⁻⁶ cm/s
13 | COc1ccc2cc(OCC(=O)NCCc3nc4ccccc4[nH]3)ccc2c1 [Compound 12] |  |  | 0.34 |  | 0.34 |  | 2.3 ± 0.6 | 100 | 
14 | O=C(COc1ccc2c(C(=O)O)cccc2c1)NCCc1nc2ccccc2[nH]1 [Compound 15] |  |  |  |  |  | 1 | > 100 | 58 | 
15 | Cc1ccccc1OCC(=O)NCCc1nc2ccccc2[nH]1 [Compound 17] | 0.8 | 0.06 |  | 5.9 |  |  |  |  | 
16 | O=C(COc1ccccc1Br)NCCc1nc2ccccc2[nH]1 [Compound 18] | 0.6 | 0.03 |  | 5.6 |  |  |  |  | 
17 | O=C(COc1ccccc1)NCCc1nc2ccccc2n1CCOc1ccccc1Br [Compound 19] |  |  |  |  |  | 0.12 |  | 72 | Papp at 5 h, 1 µM ([2]; Table S5, unit inferred): 0.08 ×10⁻⁶ cm/s; % cruzain inhibition, 0% Triton (cruzain; Table S1, 0% Triton X-100): 73.4 ± 2.5%; % cruzain inhibition, 0.01% Triton (cruzain; Table S1, 0.01% Triton X-100): 72.1 ± 1.7%; % cruzain inhibition, 0.1% Triton (cruzain; Table S1, 0.1% Triton X-100): 77.5 ± 2.2%
18 | N#Cc1ccccc1OCC(=O)NCCc1nc2ccccc2[nH]1 [Compound 31] | 0.9 | 0.15 |  | 2.2 |  |  |  |  | 
19 | O=C(COc1ccccc1[N+](=O)[O-])NCCc1nc2ccccc2[nH]1 [Compound 32] | 0.7 | 0.04 |  | 4.9 |  |  |  |  | 
20 | O=C(COc1ccc(Br)cc1)NCCc1nc2ccccc2[nH]1 [Compound 33] | 0.8 | 0.16 |  | 0.7 |  |  |  |  | 
21 | O=C(COc1ccc2ccccc2c1Br)NCCc1nc2ccccc2[nH]1 [Compound 34] | 0.1 |  |  | 0.3 |  |  |  |  | 
22 | O=C(COc1ccc2ccccc2c1)NCCc1nc2ccccc2[nH]1 [Compound 35] | 0.5 | 0.02 |  | 0.7 |  |  |  |  | 
23 | O=C(CCc1ccccc1Br)NCCc1nc2ccccc2[nH]1 [Compound 36] | 0.8 | 0.04 |  | 4.7 |  |  |  |  | 
24 | Cc1ccccc1OCC(=O)NCCc1nc2ccccc2o1 [Compound 37] | 0.9 | 0.05 |  | 19.7 |  |  |  |  | 
25 | C=CCCn1c(CCNC(=O)COc2ccccc2Cl)nc2ccccc21 [Compound 38] | 0.5 | 0.01 |  | 7.7 |  |  |  |  | 
